Experimental data published in US12012392B2, “Sulfonamide carboxamide compounds” (Inflazome Limited, priority 2017, dated 2024).
Where a name gives a salt, the structure may show the parent alone.

Assays:
NLRP3 [1] = target: T1, NLRP3 (Homo sapiens, UniProt Q96P20); assay: THP-1 cells pyroptosis assay; type: cell-based; parameters: Seed THP-1 cells (25,000 cells/well) containing 1.0 μg/ml LPS; host or cells: THP-1 cells, LPS-primed, nigericin-stimulated; details: LPS 1 μg/ml, nigericin 5 μM, resazurin read-out
T1 sequence (Q96P20 whole entry): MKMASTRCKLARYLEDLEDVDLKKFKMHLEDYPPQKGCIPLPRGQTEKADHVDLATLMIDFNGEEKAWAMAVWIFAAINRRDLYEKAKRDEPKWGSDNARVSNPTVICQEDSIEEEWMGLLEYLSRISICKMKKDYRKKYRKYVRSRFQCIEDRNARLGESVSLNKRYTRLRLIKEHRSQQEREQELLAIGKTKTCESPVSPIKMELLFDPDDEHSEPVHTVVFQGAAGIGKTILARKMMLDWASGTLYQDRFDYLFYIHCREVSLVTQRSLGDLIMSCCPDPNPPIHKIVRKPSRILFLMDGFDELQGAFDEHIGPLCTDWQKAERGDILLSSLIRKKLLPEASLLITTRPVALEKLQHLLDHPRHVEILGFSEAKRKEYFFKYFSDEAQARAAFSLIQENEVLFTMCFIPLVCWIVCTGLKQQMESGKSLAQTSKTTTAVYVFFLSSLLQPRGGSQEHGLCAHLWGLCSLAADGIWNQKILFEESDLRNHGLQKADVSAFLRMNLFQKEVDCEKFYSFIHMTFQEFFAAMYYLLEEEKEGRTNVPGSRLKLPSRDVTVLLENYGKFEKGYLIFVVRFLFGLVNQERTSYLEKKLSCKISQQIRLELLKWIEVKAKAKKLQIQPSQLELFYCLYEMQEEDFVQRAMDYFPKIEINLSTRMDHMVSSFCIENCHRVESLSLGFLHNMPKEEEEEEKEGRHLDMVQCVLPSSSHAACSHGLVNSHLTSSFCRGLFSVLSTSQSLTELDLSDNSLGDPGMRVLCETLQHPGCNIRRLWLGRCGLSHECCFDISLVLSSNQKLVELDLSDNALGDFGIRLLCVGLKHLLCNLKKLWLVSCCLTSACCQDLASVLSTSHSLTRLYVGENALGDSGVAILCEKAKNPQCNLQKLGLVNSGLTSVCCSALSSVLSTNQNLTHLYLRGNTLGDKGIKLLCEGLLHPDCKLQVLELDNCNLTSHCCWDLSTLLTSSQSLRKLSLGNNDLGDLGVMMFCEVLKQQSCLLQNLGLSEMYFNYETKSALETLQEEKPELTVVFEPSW
Procedure: THP-1 cells (ATCC #TIB-202) were grown in RPMI containing L-glutamine (Gibco #11835) supplemented with 1 mM sodium pyruvate (Sigma #S8636) and penicillin (100 units/ml)/streptomycin (0.1 mg/ml) (Sigma #P4333) in 10% Fetal Bovine Serum (FBS) (Sigma #F0804). The cells were routinely passaged and grown to confluency (˜10^6 cells/ml). On the day of the experiment, THP-1 cells were harvested and resuspended into RPMI medium (without FBS). The cells were then counted and viability (>90%) checked by Trypan blue (Sigma #T8154). Appropriate dilutions were made to give a concentration of 625,000 cells/ml. To this diluted cell solution was added LPS (Sigma #L4524) to give a 1 μg/ml Final Assay Concentration (FAC). 40 μl of the final preparation was aliquoted into each well of a 96-well plate. The plate thus prepared was used for compound screening.
The following method step-by-step assay was followed for compound screening. • 1. Seed THP-1 cells (25,000 cells/well) containing 1.0 μg/ml LPS in 40 μl of RPMI medium (without FBS) in 96-well, black walled, clear bottom cell culture plates coated with poly-D-lysine (VWR #734-0317) • 2. Add 5 μl compound (8 points half-log dilution, with 10 μM top dose) or vehicle (DMSO 0.1% FAC) to the appropriate wells • 3. Incubate for 3 hrs at 37° C. and 5% CO2 • 4. Add 5 μl nigericin (Sigma #N7143) (FAC 5 μM) to all wells • 5. Incubate for 1 hr at 37° C. and 5% CO2 • 6. At the end of the incubation period, spin plates at 300×g for 3 mins and remove supernatant • 7. Then add 50 μl of resazurin (Sigma #R7017) (FAC 100 μM resazurin in RPMI medium without FBS) and incubate plates for a further 1-2 hrs at 37° C. and 5% CO2 • 8. Plates were read in an Envision reader at Ex 560 nm and Em 590 nm • 9. IC50 data is fitted to a non-linear regression equation (log inhibitor vs response-variable slope 4-parameters) 96-Well Plate Map

NLRP3 [2] = target: T1, NLRP3; assay: Human whole blood IL1β release assay; type: cell-based; parameters: Plate out 80 μl of whole blood containing 1 μg/ml of LPS; from tissue; host or cells: human whole blood from healthy donors, LPS-primed, nigericin-stimulated; details: LPS 1 μg/ml, nigericin 10 μM, IL-1β AlphaLisa, read-out: HWB IC50
Procedure: For systemic delivery, the ability to inhibit NLRP3 when the compounds are present within the bloodstream is of great importance. For this reason, the NLRP3 inhibitory activity of a number of compounds in human whole blood was investigated in accordance with the following protocol.
Human whole blood in Li-heparin tubes was obtained from healthy donors from a volunteer donor panel. • 1. Plate out 80 μl of whole blood containing 1 μg/ml of LPS in 96-well, clear bottom cell culture plate (Corning #3585) • 2. Add […] compound (8 points half-log dilution with 10 μM top dose) or vehicle (DMSO 0.1% FAC) to the appropriate wells • 3. Incubate for 3 hrs at 37° C., 5% CO2 • 4. Add 10 μl Nigericin (Sigma #N7143) (10 μM FAC) to all wells • 5. Incubate for 1 hr at 37° C., 5 CO2 • 6. At the end of the incubation period, spin plates at 300×g for 5 mins to pellet cells and remove 20 μl of supernatant and add to 96-well v-bottom plates for […] analysis (note: these plates containing the supernatants can be stored at −80° C. to be analysed at a later date) • 7. IL-1β was measured according to the manufacturer protocol (Perkin Elmer-AlphaLisa IL-1 Kit AL220F-5000) • 8. IC50 data is fitted to anon-linear regression equation (log inhibitor vs response-variable slope 4-parameters)

Row | IC50 (NLRP3 [1]) [nM] | IC50 (NLRP3 [2]) [nM] | SMILES
1 | < 40 | < 400 | COc1cc(-c2ccc3c(c2NC(=O)NS(=O)(=O)c2ccn(C[C@@H](C)O)n2)CCC3)ccn1 [Example 94]
2 | < 40 | < 400 | COc1cc(-c2ccc3c(c2NC(=O)NS(=O)(=O)c2ccn(C(C)(C)CN4CC(OC)C4)n2)CCC3)ccn1 [Example 90]
3 | 160 to 640 | 800 to 1600 | Cn1nc(S(=O)(=O)NC(=O)Nc2c3c(cc4c2CCC4)CCC3)cc1C1(O)CCOCC1 [Example 55, N-((1,2,3,5,6,7-Hexahydro-s-indacen-4-yl)carbamoyl)-5-(4-hydroxytetrahydro-2H-pyran-4-yl)-1-methyl-1H-pyrazole-3-sulfonamide]
4 | < 40 | < 400 | C[C@@H](O)Cn1ccc(S(=O)(=O)NC(=O)Nc2c(-c3ccnc(C#N)c3)ccc3c2CCC3)n1 [Example 92]
5 | < 40 | < 400 | COc1cc(-c2ccc3c(c2NC(=O)NS(=O)(=O)c2ccn(CC(C)(C)OC)n2)CCC3)ccn1 [Example 95]
6 | 40 to 160 | < 400 | COc1cc(-c2ccc3c(c2NC(=O)NS(=O)(=O)c2ccn(C4CCOC4)n2)CCC3)ccn1 (centres unmarked) [Example 97]
7 | 160 to 640 | 800 to 1600 | C[C@@H](O)Cn1cc(S(=O)(=O)NC(=O)Nc2c3c(cc4c2CCC4)CCC3)nn1 [Example 103]
8 | < 40 | < 400 | COc1cc(-c2ccc3c(c2NC(=O)NS(=O)(=O)c2ccn(CC(C)(C)O)n2)CCC3)ccn1 [Example 96]
9 | 160 to 640 | 800 to 1600 | CCN(CCO)C(=O)c1cc(S(=O)(=O)NC(=O)Nc2c3c(cc4c2CCC4)CCC3)nn1C [Example 66, N-Ethyl-3-(N-((1,2,3,5,6,7-hexahydro-s-indacen-4-yl)carbamoyl)sulfamoyl)-N-(2-hydroxyethyl)-1-methyl-1H-pyrazole-5-carboxamide]
10 | 160 to 640 | < 400 | Cn1nc(S(=O)(=O)NC(=O)Nc2c3c(cc4c2CCC4)CCC3)cc1C(=O)N(CCO)CCO [Example 61, 3-(N-((1,2,3,5,6,7-Hexahydro-s-indacen-4-yl)carbamoyl)sulfamoyl)-N,N-bis(2-hydroxyethyl)-1-methyl-1H-pyrazole-5-carboxamide]
11 | < 40 | < 400 | N#Cc1cc(-c2ccc3c(c2NC(=O)NS(=O)(=O)c2ccn(C4CCOC4)n2)CCC3)ccn1 (centres unmarked) [Example 91]
12 | < 40 | < 400 | CC(C)(O)Cn1ccc(S(=O)(=O)NC(=O)Nc2c(-c3ccnc(C#N)c3)ccc3c2CCC3)n1 [Example 93]
13 | 40 to 160 | 400 to 800 | CCOC1(c2cc(S(=O)(=O)NC(=O)Nc3c4c(cc5c3CCC5)CCC4)nn2C)COC1 [Example 41, 5-(3-Ethoxyoxetan-3-yl)-N-((1,2,3,5,6,7-hexahydro-s-indacen-4-yl)carbamoyl)-1-methyl-1H-pyrazole-3-sulfonamide]
14 | 40 to 160 | 1600 to 3200 | COC1(c2cc(S(=O)(=O)NC(=O)Nc3c4c(cc5c3CCC5)CCC4)nn2C(C)(C)C)COC1 [Example 39, 1-(tert-Butyl)-N-((1,2,3,5,6,7-hexahydro-s-indacen-4-yl)carbamoyl)-5-(3-methoxyoxetan-3-yl)-1H-pyrazole-3-sulfonamide]
15 | 40 to 160 | 800 to 1600 | COC1CN(CC(C)(C)n2ccc(S(=O)(=O)NC(=O)Nc3c4c(cc5c3CCC5)CCC4)n2)C1 [Example 107]

Continued, compound first:

Row | SMILES | IC50 (NLRP3 [1]) [nM] | IC50 (NLRP3 [2]) [nM]
16 | O=C(Nc1c2c(cc3c1CCC3)CCC2)NS(=O)(=O)c1ccn(CC2CCCO2)n1 (single isomer, unassigned) [Example 4] | 40 to 160 | 3200 to 10000
17 | O=C(Nc1c2c(cc3c1CCC3)CCC2)NS(=O)(=O)c1ccn(C2COC2)n1 [Example 12, N-((1,2,3,5,6,7-Hexahydro-s-indacen-4-yl)carbamoyl)-1-(oxetan-3-yl)-1H-pyrazole-3-sulfonamide] | 160 to 640 | 800 to 1600
18 | CC[C@H](O)Cn1ccc(S(=O)(=O)NC(=O)Nc2c3c(cc4c2CCC4)CCC3)n1 [Example 21, (S)—N-((1,2,3,5,6,7-Hexahydro-s-indacen-4-yl)carbamoyl)-1-(2-hydroxybutyl)-1H-pyrazole-3-sulfonamide] | 40 to 160 | 800 to 1600
19 | CC(C)c1cc(F)cc(C(C)C)c1NC(=O)NS(=O)(=O)c1ccn(CC(C)(C)O)n1 [Example 18, N-((4-Fluoro-2,6-diisopropylphenyl)carbamoyl)-1-(2-hydroxy-2-methylpropyl)-1H-pyrazole-3-sulfonamide] | 640 to 2560 | 1600 to 3200
20 | CC(C)c1cc(Cl)cc(C(C)C)c1NC(=O)NS(=O)(=O)c1cc(C(=O)N(C)CCO)n(C)n1 [Example 82, 3-(N-((4-Chloro-2,6-diisopropylphenyl)carbamoyl)sulfamoyl)-N-(2-hydroxyethyl)-N,1-dimethyl-1H-pyrazole-5-carboxamide] | 40 to 160 | 800 to 1600
21 | COC(C)(C)Cn1ccc(S(=O)(=O)NC(=O)Nc2c(C(C)C)cc(F)cc2C(C)C)n1 [Example 17, N-((4-Fluoro-2,6-diisopropylphenyl)carbamoyl)-1-(2-methoxy-2-methylpropyl)-1H-pyrazole-3-sulfonamide] | 640 to 2560 | 3200 to 10000
22 | CC1(Cn2ccc(S(=O)(=O)NC(=O)Nc3c4c(cc5c3CCC5)CCC4)n2)COC1 [Example 9, N-((1,2,3,5,6,7-Hexahydro-s-indacen-4-yl)carbamoyl)-1-((3-methyloxetan-3-yl)methyl)-1H-pyrazole-3-sulfonamide, partial ammonium salt] | 640 to 2560 | 3200 to 10000
23 | CC(C)c1cc(Cl)cc(C(C)C)c1NC(=O)NS(=O)(=O)c1ccn(CC(C)(C)O)n1 [Example 19, N-((4-Chloro-2,6-diisopropylphenyl)carbamoyl)-1-(2-hydroxy-2-methylpropyl)-1H-pyrazole-3-sulfonamide] | 640 to 2560 | 3200 to 10000
24 | C[C@@H](O)Cn1cnc(S(=O)(=O)NC(=O)Nc2c3c(cc4c2CCC4)CCC3)n1 [Example 36, (R)—N-((1,2,3,5,6,7-Hexahydro-s-indacen-4-yl)carbamoyl)-1-(2-hydroxypropyl)-1H-1,2,4-triazole-3-sulfonamide] | 160 to 640 | 400 to 800
25 | O=C(Nc1c2c(cc3c1CCC3)CCC2)NS(=O)(=O)c1ccn(CC2CCOC2)n1 (centres unmarked) [Example 6, N-((1,2,3,5,6,7-Hexahydro-s-indacen-4-yl)carbamoyl)-1-((tetrahydrofuran-3-yl)methyl)-1H-pyrazole-3-sulfonamide] | 40 to 160 | 800 to 1600
26 | CC[C@@H](O)Cn1ccc(S(=O)(=O)NC(=O)Nc2c3c(cc4c2CCC4)CCC3)n1 [Example 25, (R)—N-((1,2,3,5,6,7-Hexahydro-s-indacen-4-yl)carbamoyl)-1-(2-hydroxybutyl)-1H-pyrazole-3-sulfonamide] | 160 to 640 | 800 to 1600
27 | O=C(Nc1c2c(cc3c1CCC3)CCC2)NS(=O)(=O)c1ccn(CCCO)n1 [Example 7, N-((1,2,3,5,6,7-Hexahydro-s-indacen-4-yl)carbamoyl)-1-(3-hydroxypropyl)-1H-pyrazole-3-sulfonamide] | 40 to 160 | 400 to 800
28 | COC(C)(C)Cn1ccc(S(=O)(=O)NC(=O)Nc2c3c(cc4c2CCC4)CCC3)n1 [Example 14, N-((1,2,3,5,6,7-Hexahydro-s-indacen-4-yl)carbamoyl)-1-(2-methoxy-2-methylpropyl)-1H-pyrazole-3-sulfonamide] | < 40 | 400 to 800
